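1) Cells in 96-well plates. 2) Compound, 48 h, 5 concentrations. 3) Linear interpolation between surrounding doses. 4) Unreached endpoint = highest concentration. Definition used: TGI = concentration required for complete inhibition of growth.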
Key:
Assay in all cases: NCI tumour cell line growth inhibition, 48 h
786-0 renal = system: 786-0 renal
A549 NSCLC = system: A549 NSCLC
ACHN renal = system: ACHN renal
BT-549 breast = system: BT-549 breast
CAKI-1 renal = system: CAKI-1 renal
CCRF-CEM leukemia = system: CCRF-CEM leukemia
COLO 205 colon = system: COLO 205 colon
DU-145 prostate = system: DU-145 prostate
EKVX NSCLC = system: EKVX NSCLC
HCC-2998 colon = system: HCC-2998 colon
HCT-116 colon = system: HCT-116 colon
HCT-15 colon = system: HCT-15 colon
HL-60(TB) leukemia = system: HL-60(TB) leukemia
HOP-62 NSCLC = system: HOP-62 NSCLC
HOP-92 NSCLC = system: HOP-92 NSCLC
HS 578T breast = system: HS 578T breast
HT29 colon = system: HT29 colon
IGROV1 ovarian = system: IGROV1 ovarian
K-562 leukemia = system: K-562 leukemia
KM12 colon = system: KM12 colon
LOX IMVI melanoma = system: LOX IMVI melanoma
M14 melanoma = system: M14 melanoma
MALME-3M melanoma = system: MALME-3M melanoma
MCF7 breast = system: MCF7 breast
MDA-MB-231 breast = system: MDA-MB-231 breast
MDA-MB-435 = system: MDA-MB-435
MDA-N = system: MDA-N
MOLT-4 leukemia = system: MOLT-4 leukemia
NCI-H226 lung = system: NCI-H226 lung
NCI-H23 lung = system: NCI-H23 lung
NCI-H460 lung = system: NCI-H460 lung
NCI-H522 lung = system: NCI-H522 lung
NCI/ADR-RES ovarian = system: NCI/ADR-RES ovarian
OVCAR-3 ovarian = system: OVCAR-3 ovarian
OVCAR-4 ovarian = system: OVCAR-4 ovarian
OVCAR-5 ovarian = system: OVCAR-5 ovarian
OVCAR-8 ovarian = system: OVCAR-8 ovarian
PC-3 prostate = system: PC-3 prostate
RPMI-8226 leukemia = system: RPMI-8226 leukemia
RXF 393 renal = system: RXF 393 renal
SF-268 CNS = system: SF-268 CNS
SF-295 CNS = system: SF-295 CNS
SF-539 CNS = system: SF-539 CNS
SK-MEL-2 melanoma = system: SK-MEL-2 melanoma
SK-MEL-28 melanoma = system: SK-MEL-28 melanoma
SK-MEL-5 melanoma = system: SK-MEL-5 melanoma
SK-OV-3 ovarian = system: SK-OV-3 ovarian
SN12C renal = system: SN12C renal
SNB-19 CNS = system: SNB-19 CNS
SNB-75 CNS = system: SNB-75 CNS
SR leukemia = system: SR leukemia
SW-620 colon = system: SW-620 colon
T-47D breast = system: T-47D breast
TK-10 renal = system: TK-10 renal
U251 CNS = system: U251 CNS
UACC-257 melanoma = system: UACC-257 melanoma
UACC-62 melanoma = system: UACC-62 melanoma
A498 renal = system: A498 renal

For `COc1ccc(C2SC(N)=Nc3c2c(C)nn3C(=O)c2ccncc2)cc1OC` (stereo unspecified), the TGI (786-0 renal) was > 10 µM, the TGI (A549 NSCLC) was > 10 µM and the TGI (ACHN renal) was > 10 µM. For the same compound, the TGI (BT-549 breast) was > 10 µM, the TGI (CAKI-1 renal) was > 10 µM and the TGI (CCRF-CEM leukemia) was > 10 µM. For the same compound, the TGI (COLO 205 colon) was > 10 µM, the TGI (DU-145 prostate) was > 10 µM and the TGI (EKVX NSCLC) was > 10 µM. The TGI (HCC-2998 colon) was > 10 µM, the TGI (HCT-116 colon) was > 10 µM and the TGI (HCT-15 colon) was > 10 µM. The TGI (HL-60(TB) leukemia) was > 10 µM, the TGI (HOP-62 NSCLC) was > 10 µM and the TGI (HOP-92 NSCLC) was > 10 µM. The TGI (HS 578T breast) was > 10 µM, the TGI (HT29 colon) was > 10 µM and the TGI (IGROV1 ovarian) was > 10 µM. The TGI (K-562 leukemia) was > 10 µM, the TGI (KM12 colon) was > 10 µM and the TGI (LOX IMVI melanoma) was > 10 µM. For the same compound, the TGI (M14 melanoma) was > 10 µM, the TGI (MALME-3M melanoma) was > 10 µM and the TGI (MCF7 breast) was > 10 µM. The TGI (MDA-MB-231 breast) was > 10 µM, the TGI (MDA-MB-435) was > 10 µM and the TGI (MDA-N) was > 10 µM. The TGI (MOLT-4 leukemia) was > 10 µM, the TGI (NCI-H226 lung) was > 10 µM and the TGI (NCI-H23 lung) was > 10 µM. For the same compound, the TGI (NCI-H460 lung) was > 10 µM, the TGI (NCI-H522 lung) was > 10 µM and the TGI (NCI/ADR-RES ovarian) was > 10 µM. For the same compound, the TGI (OVCAR-3 ovarian) was > 10 µM, the TGI (OVCAR-4 ovarian) was > 10 µM and the TGI (OVCAR-5 ovarian) was > 10 µM. For the same compound, the TGI (OVCAR-8 ovarian) was > 10 µM, the TGI (PC-3 prostate) was > 10 µM and the TGI (RPMI-8226 leukemia) was > 10 µM. For the same compound, the TGI (RXF 393 renal) was > 10 µM, the TGI (SF-268 CNS) was > 10 µM and the TGI (SF-295 CNS) was > 10 µM. For the same compound, the TGI (SF-539 CNS) was > 10 µM, the TGI (SK-MEL-2 melanoma) was > 10 µM and the TGI (SK-MEL-28 melanoma) was > 10 µM. The TGI (SK-MEL-5 melanoma) was > 10 µM, the TGI (SK-OV-3 ovarian) was > 10 µM and the TGI (SN12C renal) was > 10 µM. For the same compound, the TGI (SNB-19 CNS) was > 10 µM, the TGI (SNB-75 CNS) was > 10 µM and the TGI (SR leukemia) was > 10 µM. For the same compound, the TGI (SW-620 colon) was > 10 µM, the TGI (T-47D breast) was > 10 µM and the TGI (TK-10 renal) was > 10 µM. For the same compound, the TGI (U251 CNS) was > 10 µM, the TGI (UACC-257 melanoma) was > 10 µM and the TGI (UACC-62 melanoma) was > 10 µM.
`CC(=O)N=C1N(/C=C2\C(=O)Oc3ccccc3C2=O)C(=O)/C(=C/c2cccc(Cl)c2Cl)N1C` was tested, and the TGI (786-0 renal) was > 100 µM, the TGI (A498 renal) was 21.1 µM and the TGI (A549 NSCLC) was > 100 µM. It also gave a TGI (ACHN renal) of 34.3 µM, a TGI (BT-549 breast) of 75.3 µM and a TGI (CAKI-1 renal) of 65.8 µM. The TGI (CCRF-CEM leukemia) was > 100 µM, the TGI (COLO 205 colon) was 74 µM and the TGI (DU-145 prostate) was > 100 µM. The TGI (EKVX NSCLC) was > 100 µM, the TGI (HCC-2998 colon) was 31.4 µM and the TGI (HCT-116 colon) was > 100 µM. For the same compound, the TGI (HCT-15 colon) was 32.5 µM, the TGI (HL-60(TB) leukemia) was > 100 µM and the TGI (HOP-62 NSCLC) was 54.4 µM. It also gave a TGI (HOP-92 NSCLC) of 9.38 µM, a TGI (HS 578T breast) of 26.1 µM and a TGI (HT29 colon) of 49.1 µM. For the same compound, the TGI (IGROV1 ovarian) was > 100 µM, the TGI (K-562 leukemia) was 63.3 µM and the TGI (KM12 colon) was > 100 µM. The TGI (LOX IMVI melanoma) was > 100 µM, the TGI (M14 melanoma) was 34.4 µM and the TGI (MALME-3M melanoma) was > 100 µM. For the same compound, the TGI (MCF7 breast) was > 100 µM, the TGI (MDA-MB-231 breast) was 86.4 µM and the TGI (MDA-MB-435) was > 100 µM. For the same compound, the TGI (MDA-N) was > 100 µM, the TGI (MOLT-4 leukemia) was > 100 µM and the TGI (NCI-H226 lung) was 94.2 µM. For the same compound, the TGI (NCI-H23 lung) was > 100 µM, the TGI (NCI-H522 lung) was > 100 µM and the TGI (NCI/ADR-RES ovarian) was 62 µM. For the same compound, the TGI (OVCAR-3 ovarian) was 20 µM, the TGI (OVCAR-5 ovarian) was > 100 µM and the TGI (OVCAR-8 ovarian) was 44.3 µM. For the same compound, the TGI (PC-3 prostate) was > 100 µM, the TGI (RPMI-8226 leukemia) was 52.5 µM and the TGI (RXF 393 renal) was 84.6 µM. The TGI (SF-268 CNS) was > 100 µM, the TGI (SF-295 CNS) was > 100 µM and the TGI (SF-539 CNS) was 27.7 µM. The TGI (SK-MEL-2 melanoma) was 60.4 µM, the TGI (SK-MEL-28 melanoma) was > 100 µM and the TGI (SK-MEL-5 melanoma) was 32.2 µM. For the same compound, the TGI (SK-OV-3 ovarian) was 39.4 µM, the TGI (SN12C renal) was > 100 µM and the TGI (SNB-75 CNS) was 57.8 µM. For the same compound, the TGI (SR leukemia) was 54.6 µM, the TGI (SW-620 colon) was > 100 µM and the TGI (T-47D breast) was > 100 µM. For the same compound, the TGI (U251 CNS) was > 100 µM, the TGI (UACC-257 melanoma) was > 100 µM and the TGI (UACC-62 melanoma) was > 100 µM.

From PubChem BioAssay (NCI)
